Results taken from US9587005B2 (priority 2010, dated 2017).
Where two headings read alike, the source gives them in different places. *1 amine or outer side, *2 acyl side, *3 side chain or, on linkers, in order; H or OH if unused. Where a SMILES comes first, the peptide text is derived from it. Side-chain parts run from the residue outwards. [ ]: non-standard residue; d: D form. The star is where a group is joined. γGlu = O=C(O)[C@H](CCC(=O)[*:2])N[*:1]; Palmitoyl = CCCCCCCCCCCCCCCC(=O)*; Aib = CC(C)(N)C(=O)O

Experiments:
GIP receptor = molecular target: T1, GIP receptor (Homo sapiens, UniProt P48546); experiment: cAMP induction, firefly luciferase reporter assay in HEK293 cells co-transfected with GIP receptor; format: cell-based
T1 sequence (P48546 22-466): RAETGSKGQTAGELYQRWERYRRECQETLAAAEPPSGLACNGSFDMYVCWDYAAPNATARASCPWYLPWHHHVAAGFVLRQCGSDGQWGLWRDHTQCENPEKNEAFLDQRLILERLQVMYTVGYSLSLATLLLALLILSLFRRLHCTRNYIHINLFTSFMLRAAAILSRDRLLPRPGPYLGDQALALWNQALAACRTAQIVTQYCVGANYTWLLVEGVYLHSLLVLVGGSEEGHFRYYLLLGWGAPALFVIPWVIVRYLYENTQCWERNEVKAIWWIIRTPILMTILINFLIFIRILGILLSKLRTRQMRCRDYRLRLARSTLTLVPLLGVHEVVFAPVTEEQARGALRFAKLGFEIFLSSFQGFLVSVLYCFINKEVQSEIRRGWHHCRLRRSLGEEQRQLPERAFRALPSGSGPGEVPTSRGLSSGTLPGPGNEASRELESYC

GLP-1 receptor = molecular target: T2, GLP-1 receptor (Homo sapiens, UniProt P43220); experiment: cAMP induction, firefly luciferase reporter assay in HEK293 cells co-transfected with GLP-1 receptor; format: cell-based
T2 construct: expressed in transfected cells; host or cells: HEK293
Source text: This example describes an exemplary method of testing the biological activity of the peptides of the present disclosures, which method involves assaying cAMP synthesis.

[1] = EC50 (nM) at GLP-1 Receptor, Table 6, Example 12

T2 sequence (P43220 24-463): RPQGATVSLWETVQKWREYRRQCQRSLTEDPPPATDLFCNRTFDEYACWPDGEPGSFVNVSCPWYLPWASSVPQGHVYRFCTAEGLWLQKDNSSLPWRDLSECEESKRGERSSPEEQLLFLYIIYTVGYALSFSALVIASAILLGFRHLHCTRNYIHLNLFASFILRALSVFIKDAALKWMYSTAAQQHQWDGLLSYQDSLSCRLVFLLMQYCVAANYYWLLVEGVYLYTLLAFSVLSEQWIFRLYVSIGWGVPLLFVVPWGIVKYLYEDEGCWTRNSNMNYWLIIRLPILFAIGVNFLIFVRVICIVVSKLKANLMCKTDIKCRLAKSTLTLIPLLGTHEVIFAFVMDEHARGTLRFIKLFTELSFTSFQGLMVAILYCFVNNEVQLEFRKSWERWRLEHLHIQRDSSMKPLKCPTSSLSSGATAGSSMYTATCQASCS

Q: For CCCCCCCCCCCCCCCC(=O)N[C@@H](CCC(=O)NCCCC[C@H](NC(=O)[C@H](CC(=O)O)NC(=O)[C@H](CO)NC(=O)[C@@H](NC(=O)[C@H](Cc1ccccc1)NC(=O)[C@@H](NC(=O)CNC(=O)[C@H](CCC(N)=O)NC(=O)C(C)(C)NC(=O)[C@@H](N)Cc1c[nH]cn1)[C@@H](C)O)[C@@H](C)O)C(=O)N[C@@H](CO)C(=O)N[C@@H](CCCCN)C(=O)N[C@@H](Cc1ccc(O)cc1)C(=O)N[C@@H](CC(C)C)C(=O)N[C@@H](CC(=O)O)C(=O)N[C@@H](CCC(=O)O)C(=O)N[C@@H](CCCNC(=N)N)C(=O)N[C@@H](CCCNC(=N)N)C(=O)N[C@@H](C)C(=O)NC(C)(C)C(=O)N[C@@H](CCC(=O)O)C(=O)N[C@@H](Cc1ccccc1)C(=O)N[C@H](C(=O)N[C@@H](CCC(N)=O)C(=O)N[C@@H](Cc1c[nH]c2ccccc12)C(=O)N[C@@H](CC(C)C)C(=O)N[C@@H](CC(C)C)C(=O)N[C@@H](CC(=O)O)C(=O)NCC(=O)NCC(=O)N1CCC[C@H]1C(=O)N[C@@H](CO)C(=O)N[C@@H](CO)C(=O)NCC(=O)N[C@@H](C)C(=O)N1CCC[C@H]1C(=O)N1CCC[C@H]1C(=O)N1CCC[C@H]1C(=O)N[C@@H](CO)C(N)=O)C(C)C)C(=O)O [SEQ ID NO: 37] (H-H[Aib]QGTFTSDK([γGlu-Palmitoyl])SKYLDERRA[Aib]EFVQWLLDGGPSSGAPPPS-NH2; N-terminus assumed), which EC50 (GIP receptor; GIP (0.01), Table 8, Example 14, activity at the GIP receptor) is on record?
A: The EC50 was 0.003 nM.

Q: Which EC50 (GLP-1 receptor; [1]) does the source give for CC[C@H](C)[C@H](NC(=O)[C@H](CO)NC(=O)[C@H](Cc1ccc(O)cc1)NC(=O)[C@H](CC(=O)O)NC(=O)[C@H](CO)NC(=O)[C@@H](NC(=O)[C@H](Cc1ccccc1)NC(=O)[C@@H](NC(=O)CNC(=O)[C@H](CCC(N)=O)NC(=O)C(C)(C)NC(=O)[C@@H](N)Cc1c[nH]cn1)[C@@H](C)O)[C@@H](C)O)C(=O)N[C@@H](Cc1ccc(O)cc1)C(=O)N[C@@H](CC(C)C)C(=O)N[C@@H](CC(=O)O)C(=O)N[C@@H](CCCCN)C(=O)N[C@@H](CCC(N)=O)C(=O)N[C@@H](C)C(=O)N[C@@H](C)C(=O)NC(C)(C)C(=O)N[C@@H](CCC(=O)O)C(=O)N[C@@H](Cc1ccccc1)C(=O)N[C@H](C(=O)N[C@@H](CC(N)=O)C(=O)N[C@@H](Cc1c[nH]c2ccccc12)C(=O)N[C@@H](CC(C)C)C(=O)N[C@@H](CC(C)C)C(=O)N[C@@H](C)C(=O)NCC(=O)NCC(=O)N1CCC[C@H]1C(=O)N[C@@H](CO)C(=O)N[C@@H](CO)C(=O)NCC(=O)N[C@@H](C)C(=O)N1CCC[C@H]1C(=O)N1CCC[C@H]1C(=O)N1CCC[C@H]1C(=O)N[C@@H](CO)C(=O)N[C@@H](CS)C(N)=O)C(C)C [compound 52] (H-H[Aib]QGTFTSDYSIYLDKQAA[Aib]EFVNWLLAGGPSSGAPPPSC-NH2) here?
A: The EC50 was 0.005 nM.

Q: And the EC50 (GIP receptor; EC50 (nM) at GIP Receptor, Table 6, Example 12)?
A: Its EC50 is 0.006 nM.

Q: How did the EC50 (GLP-1 receptor; read-out: GLP-1 Receptor EC50, Table 1, Example 6) turn out when CC[C@H](C)[C@H](NC(=O)[C@H](CO)NC(=O)[C@H](Cc1ccc(O)cc1)NC(=O)[C@H](CC(=O)O)NC(=O)[C@H](CO)NC(=O)[C@@H](NC(=O)[C@H](Cc1ccccc1)NC(=O)[C@@H](NC(=O)CNC(=O)[C@H](CCC(N)=O)NC(=O)C(C)(C)NC(=O)[C@@H](N)Cc1ccc(O)cc1)[C@@H](C)O)[C@@H](C)O)C(=O)N[C@@H](Cc1ccc(O)cc1)C(=O)N[C@@H](CC(C)C)C(=O)N[C@@H](CC(=O)O)C(=O)N[C@@H](CCCCN)C(=O)N[C@@H](CCCCN)C(=O)N[C@@H](C)C(=O)N[C@@H](C)C(=O)NC(C)(C)C(=O)N[C@@H](CCC(=O)O)C(=O)N[C@@H](Cc1ccccc1)C(=O)N[C@H](C(=O)N[C@@H](CC(N)=O)C(=O)N[C@@H](Cc1c[nH]c2ccccc12)C(=O)N[C@@H](CC(C)C)C(=O)N[C@@H](CC(C)C)C(=O)N[C@@H](C)C(=O)NCC(=O)NCC(=O)N1CCC[C@H]1C(=O)N[C@@H](CO)C(=O)N[C@@H](CO)C(=O)NCC(=O)N[C@@H](C)C(=O)N1CCC[C@H]1C(=O)N1CCC[C@H]1C(=O)N1CCC[C@H]1C(=O)N[C@@H](CO)C(=O)N[C@@H](CCCCN)C(N)=O)C(C)C [mt-402] was run?
A: The EC50 was 0.007 nM.

Q: For CC[C@H](C)[C@H](NC(=O)[C@H](CO)NC(=O)[C@H](Cc1ccc(O)cc1)NC(=O)[C@H](CC(=O)O)NC(=O)[C@H](CO)NC(=O)[C@@H](NC(=O)[C@H](Cc1ccccc1)NC(=O)[C@@H](NC(=O)CNC(=O)[C@H](CCC(N)=O)NC(=O)C(C)(C)NC(=O)[C@@H](N)Cc1c[nH]cn1)[C@@H](C)O)[C@@H](C)O)C(=O)N[C@@H](Cc1ccc(O)cc1)C(=O)N[C@@H](CC(C)C)C(=O)N[C@@H](CC(=O)O)C(=O)N[C@@H](CCC(=O)O)C(=O)N[C@@H](CCCCN)C(=O)N[C@@H](CCCNC(=N)N)C(=O)N[C@@H](C)C(=O)N[C@@H](CCCCN)C(=O)N[C@@H](CCC(=O)O)C(=O)N[C@@H](Cc1ccccc1)C(=O)N[C@H](C(=O)N[C@@H](CS)C(=O)N[C@@H](Cc1c[nH]c2ccccc12)C(=O)N[C@@H](CC(C)C)C(=O)N[C@@H](CC(C)C)C(=O)N[C@@H](C)C(=O)NCC(=O)NCC(=O)N1CCC[C@H]1C(=O)N[C@@H](CO)C(=O)N[C@@H](CO)C(=O)NCC(=O)N[C@@H](C)C(=O)N1CCC[C@H]1C(=O)N1CCC[C@H]1C(=O)N1CCC[C@H]1C(=O)N[C@@H](CO)C(=O)N[C@@H](CCCCN)C(N)=O)C(C)C [SEQ ID NO: 230] (H-H[Aib]QGTFTSDYSIYLDEKRAKEFVCWLLAGGPSSGAPPPSK-NH2; N-terminus assumed), which EC50 (GLP-1 receptor; GLP-1 EC50 (nM), Table 17, Example 25) is on record?
A: Its EC50 is 0.222 nM.

Q: How did the EC50 (GLP-1 receptor; [1]) turn out when CCCCCCCCCCCCCCCC(=O)N[C@@H](CCC(=O)NCCCC[C@H](NC(=O)[C@H](CC(=O)O)NC(=O)[C@H](CO)NC(=O)[C@@H](NC(=O)[C@H](Cc1ccccc1)NC(=O)[C@@H](NC(=O)CNC(=O)[C@H](CCC(=O)O)NC(=O)C(C)(C)NC(=O)[C@@H](N)Cc1c[nH]cn1)[C@@H](C)O)[C@@H](C)O)C(=O)N[C@@H](CO)C(=O)N[C@@H](CCCCN)C(=O)N[C@@H](Cc1ccc(O)cc1)C(=O)N[C@@H](CC(C)C)C(=O)N[C@@H](CC(=O)O)C(=O)N[C@@H](CCC(=O)O)C(=O)N[C@@H](CCCNC(=N)N)C(=O)N[C@@H](C)C(=O)N[C@@H](C)C(=O)N[C@@H](CCC(N)=O)C(=O)N[C@@H](CC(=O)O)C(=O)N[C@@H](Cc1ccccc1)C(=O)N[C@H](C(=O)N[C@@H](CCC(N)=O)C(=O)N[C@@H](Cc1c[nH]c2ccccc12)C(=O)N[C@@H](CC(C)C)C(=O)N[C@@H](CC(C)C)C(=O)N[C@@H](CC(=O)O)C(=O)NCC(=O)NCC(=O)N1CCC[C@H]1C(=O)N[C@@H](CO)C(=O)N[C@@H](CO)C(=O)NCC(=O)N[C@@H](C)C(=O)N1CCC[C@H]1C(=O)N1CCC[C@H]1C(=O)N1CCC[C@H]1C(=O)N[C@@H](CO)C(N)=O)C(C)C)C(=O)O [compound 80] (H-H[Aib]EGTFTSDK([γGlu-Palmitoyl])SKYLDERAAQDFVQWLLDGGPSSGAPPPS-NH2; N-terminus assumed) was run?
A: The EC50 was 0.008 nM.

Q: Which EC50 (GLP-1 receptor; EC50 (nM) at GLP-1 Receptor, Table 4, Example 9, composite of multiple different activity assays) does the source give for CCCCCCCCCCCCCCCC(=O)N[C@@H](CCC(=O)NCCCC[C@H](NC(=O)[C@H](CC(=O)O)NC(=O)[C@H](CO)NC(=O)[C@@H](NC(=O)[C@H](Cc1ccccc1)NC(=O)[C@@H](NC(=O)CNC(=O)[C@H](CCC(=O)O)NC(=O)C(C)(C)NC(=O)[C@@H](N)Cc1c[nH]cn1)[C@@H](C)O)[C@@H](C)O)C(=O)N[C@@H](CO)C(=O)N[C@@H](CCCCN)C(=O)N[C@@H](Cc1ccc(O)cc1)C(=O)N[C@@H](CC(C)C)C(=O)N[C@@H](CC(=O)O)C(=O)N[C@@H](CCC(=O)O)C(=O)N[C@@H](CCCNC(=N)N)C(=O)N[C@@H](CCCNC(=N)N)C(=O)N[C@@H](C)C(=O)NC(C)(C)C(=O)N[C@@H](CCC(=O)O)C(=O)N[C@@H](Cc1ccccc1)C(=O)N[C@H](C(=O)N[C@@H](CCC(N)=O)C(=O)N[C@@H](Cc1c[nH]c2ccccc12)C(=O)N[C@@H](CC(C)C)C(=O)N[C@@H](CC(C)C)C(=O)N[C@@H](CC(=O)O)C(=O)NCC(=O)NCC(=O)N1CCC[C@H]1C(=O)N[C@@H](CO)C(=O)N[C@@H](CO)C(=O)NCC(=O)N[C@@H](C)C(=O)N1CCC[C@H]1C(=O)N1CCC[C@H]1C(=O)N1CCC[C@H]1C(=O)N[C@@H](CO)C(N)=O)C(C)C)C(=O)O [compound 38] (H-H[Aib]EGTFTSDK([γGlu-Palmitoyl])SKYLDERRA[Aib]EFVQWLLDGGPSSGAPPPS-NH2; N-terminus assumed) here?
A: The EC50 was 0.008 nM.

Q: How did the EC50 (GLP-1 receptor; [1]) turn out when CC[C@H](C)[C@H](NC(=O)[C@H](CO)NC(=O)[C@H](Cc1ccc(O)cc1)NC(=O)[C@H](CC(=O)O)NC(=O)[C@H](CO)NC(=O)[C@@H](NC(=O)[C@H](Cc1ccccc1)NC(=O)[C@@H](NC(=O)CNC(=O)[C@H](CCC(N)=O)NC(=O)[C@@H](CO)NC(=O)[C@@H](N)Cc1ccc(O)cc1)[C@@H](C)O)[C@@H](C)O)C(=O)N[C@@H](Cc1ccc(O)cc1)C(=O)N[C@@H](CC(C)C)C(=O)N[C@@H](CC(=O)O)C(=O)N[C@@H](CCCCN)C(=O)N[C@@H](CCC(N)=O)C(=O)N[C@@H](C)C(=O)N[C@@H](C)C(=O)NC(C)(C)C(=O)N[C@@H](CCC(=O)O)C(=O)N[C@@H](Cc1ccccc1)C(=O)N[C@H](C(=O)N[C@@H](CC(N)=O)C(=O)N[C@@H](Cc1c[nH]c2ccccc12)C(=O)N[C@@H](CC(C)C)C(=O)N[C@@H](CC(C)C)C(=O)N[C@@H](C)C(=O)NCC(=O)NCC(=O)N1CCC[C@H]1C(=O)N[C@@H](CO)C(=O)N[C@@H](CO)C(=O)NCC(=O)N[C@@H](C)C(=O)N1CCC[C@H]1C(=O)N1CCC[C@H]1C(=O)N1CCC[C@H]1C(=O)N[C@@H](CO)C(=O)N[C@@H](CS)C(N)=O)C(C)C [compound 50] was run?
A: The EC50 was 0.108 nM.
